Our source for the inhibition of growth values is ChEMBL document CHEMBL3392978 (Eur J Med Chem, 2015).

What all share (type): functional
One experiment deals with HepG2. The experiment is described as follows: Growth inhibition of human HepG2 cells at 10 uM after 72 hrs by MTT assay. Particulars: HepG2, 72 h, read-out: GI.
For the next experiment, the system named is MDA-MB-453. The experiment is described as follows: Growth inhibition of human MDA-MB-453 cells at 10 uM after 72 hrs by MTT assay. The settings on record: MDA-MB-453, 72 h, read-out: GI. For orientation: Tetrazolium dyes change colour on reduction, which living cells bring about.
The test system of the next experiment is SW480. The experiment is described as follows: Growth inhibition of human SW480 cells at 10 uM after 72 hrs by MTT assay. Particulars: SW480, 72 h, read-out: GI.
The next experiment concerns A-375. Kind of experiment: Growth inhibition of human A375 cells at 10 uM after 72 hrs by MTT assay. The settings on record: A-375, 72 h, read-out: GI.
A further experiment deals with NCI-H522. Kind of experiment: Growth inhibition of human NCI-H522 cells at 10 uM after 72 hrs by MTT assay. The settings on record: NCI-H522, 72 h, read-out: GI.
The test system of a further experiment is MCF7. The experiment is described as follows: Growth inhibition of human MCF7 cells at 10 uM after 72 hrs by MTT assay. Particulars: MCF7, 72 h, read-out: GI.

In the case of `Cc1ccc(NC(=O)c2ccc(Cl)cc2)cc1C(=O)Nc1ccc(-c2ncc[nH]2)nc1`, the inhibition of growth at 10 µM came out at 12.1% in the experiment with HepG2; 21.4% in the experiment with MDA-MB-453; 17.7% in the experiment on SW480; 23.9% in the experiment with A-375; 6.4% in the experiment on NCI-H522; 32.4% in the experiment with MCF7.
Turning to `Cc1ccc(NC(=O)c2cccc(Br)c2)cc1C(=O)Nc1ccc(-c2ncc[nH]2)nc1`, the inhibition of growth at 10 µM in the experiment on HepG2 was 6.4%; in the experiment with MDA-MB-453, 20.2%; in the experiment on SW480, 24.4%; with A-375, 31.9%; in the experiment on NCI-H522, 10.4%; in the experiment with MCF7, 33.2%.
For the molecule `O=C(Nc1ccc(Cl)c(C(=O)Nc2ccc(-c3ncc[nH]3)nc2)c1)c1ccc(Cl)c(Br)c1`, the inhibition of growth at 10 µM in the experiment on HepG2 was 35.5%; in the experiment with MDA-MB-453, 15.1%; with SW480, 12.4%; in the experiment on A-375 it was 38.4%; with NCI-H522 it was -15.4%; with MCF7, 29.1%.
With `Cc1ccc(NC(=O)c2ccc(Br)cc2)cc1C(=O)Nc1ccc(-c2ncc[nH]2)nc1`, the inhibition of growth at 10 µM with HepG2 turned out to be 14.8%; with MDA-MB-453, 18.9%; in the experiment on SW480 it was 23.9%; in the experiment on A-375, 30.1%; in the experiment on NCI-H522, 13.5%; with MCF7, 31.9%.
For the molecule `O=C(Nc1ccc(Cl)c(C(=O)Nc2ccc(-c3ncc[nH]3)nc2)c1)c1ccc(C(F)(F)F)cc1`, the inhibition of growth at 10 µM in the experiment on HepG2 was 44%; in the experiment with MDA-MB-453, 48.4%; in the experiment with SW480, 15.1%; in the experiment on A-375, 47.6%; in the experiment with NCI-H522, -22.9%; in the experiment with MCF7, 35.3%.
Take `O=C(Nc1ccc(Cl)c(C(=O)Nc2ccc(-c3ncc[nH]3)nc2)c1)c1cccc(F)c1`: the inhibition of growth at 10 µM with HepG2 was -12.9%; in the experiment with MDA-MB-453, 19%; in the experiment on SW480, 16.7%; in the experiment on A-375, 32.3%; in the experiment on NCI-H522 it was 7.6%; in the experiment on MCF7, 29.7%.
Take `Cc1cccc(C(=O)Nc2ccc(Cl)c(C(=O)Nc3ccc(-c4ncc[nH]4)nc3)c2)c1`: the inhibition of growth at 10 µM with HepG2 stood at 24.8%; with MDA-MB-453 it was 23.6%; in the experiment with SW480, 30.8%; in the experiment with A-375 it was 40.8%; in the experiment with NCI-H522 it was 5.3%; with MCF7, 34%.
As to `Cc1ccc(NC(=O)c2ccc(Cl)c(Cl)c2)cc1C(=O)Nc1ccc(-c2ncc[nH]2)nc1`, the inhibition of growth at 10 µM is 5.5% in the experiment on HepG2; 24.4% in the experiment with MDA-MB-453; 13.7% with SW480; 30.6% with A-375; 2% with NCI-H522; 33% in the experiment on MCF7.
For the molecule `O=C(Nc1cccc(C(F)(F)F)c1)c1ccc(Cl)c(C(=O)Nc2ccc(-c3ncc[nH]3)nc2)c1`, the inhibition of growth at 10 µM in the experiment with HepG2 was 29.9%; with MDA-MB-453, 19.7%; in the experiment with SW480, 18.9%; in the experiment with A-375, 44.1%; with NCI-H522, -18%; with MCF7 it was 25.9%.
With `Cc1ccc(NC(=O)c2cccc(F)c2)cc1C(=O)Nc1ccc(-c2ncc[nH]2)nc1`, the inhibition of growth at 10 µM is 2.1% with HepG2; 14.9% in the experiment on MDA-MB-453; 10.4% in the experiment with SW480; 27.9% in the experiment on A-375; 8.5% in the experiment on NCI-H522; 29.2% with MCF7.
